Test results published in PMC10397409, “The action of physiological and synthetic steroids on the calcium channel CatSper in human sperm” (Frontiers in Cell and Developmental Biology, 2023).
Read-outs that look alike come from different tables or passages of the source.

Experiments:
CatSper = molecular target: T1, CatSper (Homo sapiens, UniProt Q7RTX7+Q86XQ3+Q8NEC5+Q96P56); assay: Steroid-induced increase in [Ca2+]i in human sperm (Fluo-4 HTS assay, screen 1 activators); type: cell-based; settings: for Emax: read-out: Max amplitude (%) (± SD)
T1 construct: Motile spermatozoa were selected by a ‘swim-up’ procedure; endogenous in cells; host or cells: motile human spermatozoa (swim-up) from healthy donors

human sperm = assay: Acrosome reaction in live human sperm (PSA-FITC flow cytometry); type: cell-based; settings: 45 min; for cells with induced acrosome reaction: steroid 10 µM, capacitated sperm, increase not significant
Experimental: The evaluation of acrosome reaction in live human sperm cells was performed using a modified version of a previously described method ([Zoppino et al., 2012]). Briefly, swim-up recovered motile spermatozoa were allowed to capacitate for 4 h at 37°C in capacitating media (HTF+) containing: 93.8 mM NaCl, 4.7 mM KCl, 0.2 mM MgSO4, 0.369 mM KH2PO4, 2.04 mM CaCl2, 20.98 mM HEPES, 2.78 mM glucose, 21.4 mM Na-lactate, 25 mM NaHCO3, 6.6 µM Na-pyruvate, and the pH was adjusted to 7.35. Capacitated sperm were then incubated for 30 min with 5 μg/mL Pisum sativum agglutinin conjugated with fluorescein isothiocyanate (PSA-FITC) and 10 μg/mL Hoechst-33342. Samples were centrifuged at 700 x g for 10 min at room temperature to remove excess dye and resuspended in HTF+. Sperm were then incubated for 45 min in the absence (DMSO) or presence of the steroids at 10 μM, or positive control P4 at 10 µM. The ionophore A23187 was also used as a positive control and incubated with sperm at 2 µM for 30 min only. PI (0.5 μg/mL) was then added to all samples which were analyzed using BDFACSAria. FITC-PSA fluorescence was detected by excitation at 475 nm and emission at 560/35 nm, PI was detected by excitation at 530 nm and emission at 675/75 nm and Hoechst was detected by excitation at 346 nm and emission at 460 nm. Hoechst-positive and PI-negative cells were classified as live cells. Doublet exclusion was performed by two-dimensional dot plot analysis of forward-scatter width (FSC-W) versus forward-scatter height (FSC-H), and side-scatter width (SSC-W) versus side-scatter height (SSC-H) on the pre-selected singlets. Data were collected from 40,000 […] per sample to define the sperm population. Based on the selected population, PI-negative and PSA-FITC-positive cells were selected as live acrosome reacted cells, whereas PI-negative and PSA-FITC-negative cells were selected as live acrosome intact cells.

[1] = EC50 (±SD), increase in [Ca2+]i, dose-response 90 µM to 0.3 nM
[2] = Mean EC50 µM (±SD), pooled from 3 independent experiments
[3] = maximal amplitude of steroid-induced [Ca2+]i increase, relative to P4, 3 independent experiments

Row | SMILES | EC02 compared with reported maximum concentration in blood serum (CatSper) | effective concentrations as low as (dose-dependent increase in [Ca2+]i) (CatSper) | EC50 (CatSper; [1]) | EC50 (CatSper; [2]) | Emax (CatSper; [3]) | cells with induced acrosome reaction (human sperm) | increase in [Ca2+]i (CatSper; at low concentrations in the nanomolar range) | Emax (CatSper) | EC50 (CatSper; increase in [Ca2+]i in human sperm, read-out: EC50) | EC50 (CatSper; increase in [Ca2+]i, dose-response 90 µM to 0.3 nM, read-out: EC50 (±SD)) | EC50 (CatSper; pooled from 3 independent experiments, read-out: Mean EC50 µM (±SD)) | effect on acrosome reaction (AR) (human sperm; steroids 10 µM, P4 10 µM)
1 | CC(=O)[C@H]1CC[C@H]2[C@@H]3CC=C4C[C@@H](O)CC[C@]4(C)[C@H]3CC[C@]12C [Pregnenolone] | EC02 below the reported maximum concentration found in blood serum | 10 nM | 0.073 µM | 0.07 µM | 73% | more than 10% | – | – | – | – | – | –
2 | C[C@]12Cc3c[nH]nc3C[C@@H]1CC[C@@H]1[C@@H]2CC[C@@]2(C)[C@H]1CC[C@]2(C)O [Stanozolol] | – | – | 0.285 µM | 0.081 µM | – | more than 10% | 30% | 79% | – | – | – | –
3 | CC(=O)[C@H]1CC[C@H]2[C@@H]3CCC4=CC(=O)CC[C@]4(C)[C@H]3CC[C@]12C [Progesterone] | – | – | – | – | 100% | – | – | – | 0.0025 µM | 0.003 µM | 0.002 µM | only slightly increased the AR
4 | C[C@]12CC[C@H](O)C[C@@H]1CC[C@@H]1[C@@H]2CC[C@]2(C)C(=O)CC[C@@H]12 [Epiandrosterone] | EC02 below the reported maximum concentration found in blood serum | – | 0.209 µM | 0.207 µM | – | more than 10% | – | 78% | – | – | – | –
